# Results from US10709704B2, “Treating neural disease with tyrosine kinase inhibitors” (GEORGETOWN UNIVERSITY, priority 2012, dated 2020).
# System: GFP-tagged TDP-43
# Assay: Distribution of GFP-tagged TDP-43 in M17 cells
# Assay type: cell-based, human
# Set-up: distribution of GFP-tagged TDP-43 / translocation of GFP-tagged TDP-43 with Nilotinib or Bosutinib: unit of the concentration uncertain
# Procedure: Human neuroblastoma M17 cells (seeding density 2×10^5 cells) were grown in 24 well dishes (Falcon) to 70% confluence in Dulbecco's Modified Eagle Medium (DMEM; Invitrogen) plus 10% (v/v) heat-inactivated fetal bovine serum (Invitrogen), penicillin/streptomycin, and 2 mM L-glutamine at 37° C. and 5% CO2, washed twice in phosphate-buffered saline (PBS). Transient transfection was performed with 3 μg parkin cDNA or 3 μg TDP-43 cDNA, or 3 μg LacZ cDNA. Cells were treated with 5 μM tubacin for 24 hours and DAPI stained in 12 well dishes. Cells were harvested 24 hours after transfection. Transfection was performed in DMEM without serum using Lipofectamine 2000 (Invitrogen) according to the manufacturer's protocol. […] Western blot was performed on NuPAGE 4-12% Bis-Tris gel (Invitrogen). Protein estimation was performed using the microscale BioRad protein assay (BioRad Laboratories Inc, Hercules, Calif., USA).
# To ascertain that both parkin and HDAC6 are required for TDP-43 translocation, GFP-tagged TDP-43 was expressed in M17 neuroblastoma cells in the presence of wild type or loss-of-function mutant (T240R) parkin, and treated with 5 μM selective HDAC6 inhibitor for 24 hours.
# The following data support these conclusions.
smiles,measurement,setting,value
O=C(CCCCCCC(=O)Nc1ccc([C@H]2O[C@@H](CSc3nc(-c4ccccc4)c(-c4ccccc4)o3)C[C@@H](c3ccc(CO)cc3)O2)cc1)NO [Tubacin],GFP fluorescence (GFP-TDP-43) in the cytosol,"5 μM for 24 hours, presence or absence of parkin",did not lead to GFP fluorescence in the cytosol
same,translocation of GFP-tagged TDP-43 with Nilotinib or Bosutinib,Tubacin (5 µM) for additional 24 hrs,impairs translocation
